Source: US12545639B2, “3-substituted phenylamidine compounds, preparation and use thereof” (PI INDUSTRIES LTD., priority 2019, dated 2026)

How the values were obtained:
Pyricularia oryzae [1] = experiment: whole plant or invertebrate; type: in vivo, Pyricularia oryzae on rice; details: read-out: Efficacy (% control), disease severity compared to the untreated check
[2] = tested on: Septoria lycopersici/Corynespora cassicola (CORYCA); experiment: Septoria lycopersici/Corynespora cassicola (CORYCA) (leaf spot of tomato) in vitro test, radial growth on potato dextrose agar; type: cell-based; details: 168 h, 300 ppm in potato dextrose agar, 25° C., 70% relative humidity, seven days, read-out: control compared to the untreated check (radial growth)
Alternaria solani = Alternaria solani (early blight of tomato/potato) in vitro test, radial growth on potato dextrose agar; type: cell-based; details: 168 h, 300 ppm in potato dextrose agar, 25° C., 60% relative humidity, seven days, read-out: control compared to the untreated check (radial growth)
Phakopsora pachyrhizi = Phakopsora pachyrhizi test in soybean, preventive, in vivo on plants; details: in Glycine max, read-out: Efficacy (% control), disease severity compared to the untreated check
Botrytis cinerea = Botrytis cinerea (gray mold) in vitro test, radial growth on potato dextrose agar; type: cell-based; details: 168 h, 300 ppm in potato dextrose agar, 22° C., 90% relative humidity, seven days, read-out: control compared to the untreated check (radial growth)
Colletotrichum capsici = Colletotrichum capsici (anthracnose) in vitro test, radial growth on potato dextrose agar; type: cell-based; details: Colletotrichum truncatum, 168 h; 300 ppm in potato dextrose agar; 25° C., 60% relative humidity, seven days; read-out: control compared to the untreated check (radial growth)
Rhizoctonia solani = Rhizoctonia solani (rice sheath blight/potato black scurf) in vitro test, radial growth on potato dextrose agar; type: cell-based; details: 168 h, 300 ppm in potato dextrose agar, 25° C., 60% relative humidity, seven days, read-out: control compared to the untreated check (radial growth)
Pyricularia oryzae [3] = experiment: microbe, parasite or virus in culture; type: cell-based; details: 168 h, read-out: control compared to the untreated check (radial growth)
Fusarium culmorum = Fusarium culmorum (foot rot of cereals) in vitro test, radial growth on potato dextrose agar; type: cell-based; details: 168 h, 300 ppm in potato dextrose agar, 25° C., 60% relative humidity, seven days, read-out: control compared to the untreated check (radial growth)
In short: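 Compound in 0.3% DMSO mixed into potato dextrose agar, plates seeded with a 5 mm mycelial disc from an actively growing virulent culture. After seven days at 25° C and 60% relative humidity, radial growth was measured against untreated control.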

CCN(C)C=Nc1cc(C)cc(Cc2ccc(C(F)(F)F)cc2)c1Cl [Compound 51, N′-(2-chloro-5-methyl-3-(4-(trifluoromethyl)benzyl)phenyl)-N-ethyl-N-methylformimidamide]
≥ 70%: pest or weed control at 500 ppm (Pyricularia oryzae [1]) | inhibition of growth at 300 ppm [2] | inhibition of growth at 300 ppm (Alternaria solani) | pest or weed control at 500 ppm (Phakopsora pachyrhizi) | inhibition of growth at 300 ppm (Botrytis cinerea) | inhibition of growth at 300 ppm (Colletotrichum capsici) | inhibition of growth at 300 ppm (Rhizoctonia solani) | inhibition of growth at 300 ppm (Pyricularia oryzae [3]) | inhibition of growth at 300 ppm (Fusarium culmorum)

CCN(C)C=Nc1cc(C)cc(Cc2cc(C)cc(C)c2)c1Cl [Compound 55, N′-(2-chloro-3-(3,5-dimethylbenzyl)-5-methylphenyl)-N-ethyl-N-methylformimidamide]
≥ 70%: pest or weed control at 500 ppm (Pyricularia oryzae [1]) | inhibition of growth at 300 ppm [2] | inhibition of growth at 300 ppm (Alternaria solani) | pest or weed control at 500 ppm (Phakopsora pachyrhizi) | inhibition of growth at 300 ppm (Botrytis cinerea) | inhibition of growth at 300 ppm (Rhizoctonia solani) | inhibition of growth at 300 ppm (Pyricularia oryzae [3]) | inhibition of growth at 300 ppm (Fusarium culmorum)

CCN(C)C=Nc1cc(C)cc(Cc2ccc(OC(F)(F)F)cc2)c1Cl [Compound 52, N′-(2-chloro-5-methyl-3-(4-(trifluoromethoxy)benzyl)phenyl)-N-ethyl-N-methylformimidamide]
≥ 70%: pest or weed control at 500 ppm (Pyricularia oryzae [1]) | inhibition of growth at 300 ppm [2] | inhibition of growth at 300 ppm (Alternaria solani) | pest or weed control at 500 ppm (Phakopsora pachyrhizi) | inhibition of growth at 300 ppm (Botrytis cinerea) | inhibition of growth at 300 ppm (Rhizoctonia solani) | inhibition of growth at 300 ppm (Pyricularia oryzae [3]) | inhibition of growth at 300 ppm (Fusarium culmorum)

CCN(C)C=Nc1cc(C)cc(Cc2ccc(F)c(Cl)c2)c1Cl [Compound 54, N′-(2-chloro-3-(3-chloro-4-fluorobenzyl)-5-methylphenyl)-N-ethyl-N-methylformimidamide]
≥ 70%: pest or weed control at 500 ppm (Pyricularia oryzae [1]) | inhibition of growth at 300 ppm [2] | inhibition of growth at 300 ppm (Alternaria solani) | pest or weed control at 500 ppm (Phakopsora pachyrhizi) | inhibition of growth at 300 ppm (Botrytis cinerea) | inhibition of growth at 300 ppm (Rhizoctonia solani) | inhibition of growth at 300 ppm (Pyricularia oryzae [3]) | inhibition of growth at 300 ppm (Fusarium culmorum)

CCN(C)C=Nc1cc(C)cc(Cc2ccccc2OC(F)(F)F)c1Cl [Compound 50, N′-(2-chloro-5-methyl-3-(2-(trifluoromethoxy)benzyl)phenyl)-N-ethyl-N-methylformimidamide]
≥ 70%: pest or weed control at 500 ppm (Pyricularia oryzae [1]) | inhibition of growth at 300 ppm [2] | inhibition of growth at 300 ppm (Alternaria solani) | pest or weed control at 500 ppm (Phakopsora pachyrhizi) | inhibition of growth at 300 ppm (Botrytis cinerea) | inhibition of growth at 300 ppm (Colletotrichum capsici) | inhibition of growth at 300 ppm (Rhizoctonia solani) | inhibition of growth at 300 ppm (Pyricularia oryzae [3])
